Results published in patent publication US9427479B2, “Tubulysin derivatives” (MedImmune LLC, priority 2014, dated 2016).

Key:
Assay type in all cases: cell-based
DU145 = test: In vitro proliferation assay (CellTiter-Glo), DU145; conditions: Homo sapiens, DU-145; DU145 cells; cultured 72 to 144 hours; CellTiter-Glo cell viability
Procedure: A panel of human cancer cell lines (DU 145, NCI-N87, and MDA-MB-361) obtained from the American Type Tissue Collection (ATCC) (P.O. Box 1549, Manassa, Va. 20108 (USA)) were used to determine the relative cytotoxicity of tubulysin compounds of the invention. The cells were plated in culture media at a density of 2,000 to 5,000 per well of tissue-culture-treated 96-well plates in a volume of 80 μl and allowed to adhere overnight. A 5× concentration of each compound tested was prepared by diluting the test articles in culture medium. Twenty microliters of each test article was added to cells in duplicate or triplicate such that the final dose curve ranged from 4 μg/ml down to 61 pg/ml in a stepwise 1:4 serial dilution series. The treated cells were cultured at 37° C./5% CO2 for 72 to 144 hours. The CellTiter-Glo Luminescent Viability Assay from Promega was used to determine relative cytotoxicity. Briefly, 100 μl of CellTiter-Glo reagent was added to each well, allowed to incubate for 10 minutes at room temperature with mild shaking and then the […] was read using a Perkin Elmer EnVision luminometer. The percent cell viability was calculated by the following formula: (average luminescence of treated samples/average luminescence of control (untreated) samples)×100. IC50 values were determined using logistic non-linear regression analysis with GraphPad Prism software. Not all compounds were assayed against all cell lines.

HCT116 = test: In vitro proliferation assay (CellTiter-Glo), HCT116; conditions: Homo sapiens, HCT-116; HCT116 cells; cultured 72 to 144 hours; CellTiter-Glo cell viability
MB231 = test: In vitro proliferation assay (CellTiter-Glo), MB231; conditions: Homo sapiens; MB231 cells; cultured 72 to 144 hours; CellTiter-Glo cell viability

SMILES | IC50 (DU145) [nM] | IC50 (HCT116) [nM] | IC50 (MB231) [nM]
CC[C@H](C)[C@H](NC(=O)[C@H]1C[C@H](C)CCN1C)C(=O)N(CC)[C@H](C[C@@H](OC(C)=O)c1nc(C(=O)N[C@@H](Cc2ccc(N)cc2)C[C@H](C)C(=O)O)cs1)C(C)C [Compound 1, (2S,4R)-4-(2-((1R,3R)-1-acetoxy-3-((2S,3S)-2-((2R,4R)-1,4-dimethylpiperidine-2-carboxamido)-N-ethyl-3-methylpentanamido)-4-methylpentyl)thiazole-4-carboxamido)-5-(4-aminophenyl)-2-methylpentanoic acid] | 0.2 | 0.6 | 2.5
CC[C@H](C)[C@H](NC(=O)[C@H]1CC(C)(C)CCN1C)C(=O)N(C)[C@H](C[C@@H](OC(C)=O)c1nc(C(=O)N[C@@H](Cc2ccccc2)C[C@H](C)C(=O)O)cs1)C(C)C [Compound 4, (2S,4R)-4-(2-((1R,3R)-1-acetoxy-3-((2S,3S)—N,3-dimethyl-2-((R)-1,4,4-trimethylpiperidine-2-carboxamido)pentanamido)-4-methylpentyl)thiazole-4-carboxamido)-2-methyl-5-phenylpentanoic acid] | 1.3 | 1.8 | 3.9
CC[C@H](C)[C@H](NC(=O)[C@@]1(C)CCCCN1C)C(=O)N(CC)[C@H](C[C@@H](OC(C)=O)c1nc(C(=O)N[C@@H](Cc2ccc(N)cc2)C[C@H](C)C(=O)O)cs1)C(C)C [Compound 3, (2S,4R)-4-(2-((1R,3R)-1-acetoxy-3-((2S,3S)-2-((R)-1,2-dimethylpiperidine-2-carboxamido)-N-ethyl-3-methylpentanamido)-4-methylpentyl)thiazole-4-carboxamido)-5-(4-aminophenyl)-2-methylpentanoic acid] | 0.2 |  | 
CC[C@H](C)[C@H](NC(=O)[C@H]1C[C@H](C)CCN1C)C(=O)N(C)[C@H](C[C@@H](OC(C)=O)c1nc(C(=O)N[C@@H](Cc2ccc(N)cc2)C[C@H](C)C(=O)O)cs1)C(C)C [Compound 6, (2S,4R)-4-(2-((1R,3R)-1-acetoxy-3-((2S,3S)-2-((2R,4R)-1,4-dimethylpiperidine-2-carboxamido)-N,3-dimethylpentanamido)-4-methylpentyl)thiazole-4-carboxamido)-5-(4-aminophenyl)-2-methylpentanoic acid] | 4 | 1.9 | 6.6
CC[C@H](C)[C@H](NC(=O)C1(CC)CCCCN1C)C(=O)N(CC)[C@H](C[C@@H](OC(C)=O)c1nc(C(=O)N[C@@H](Cc2ccc(N)cc2)C[C@H](C)C(=O)O)cs1)C(C)C (stereo partly drawn) [Compound 2, (2S,4R)-4-(2-((1R,3R)-1-acetoxy-3-((2S,3S)—N-ethyl-2-(2-ethyl-1-methylpiperidine-2-carboxamido)-3-methylpentanamido)-4-methylpentyl)thiazole-4-carboxamido)-5-(4-aminophenyl)-2-methylpentanoic acid] | 0.5 |  | 
CC[C@H](C)[C@H](NC(=O)[C@H]1C[C@H](C)CCN1C)C(=O)N(C)[C@H](C[C@@H](OC(C)=O)c1nc(C(=O)N[C@@H](Cc2ccccc2)C[C@H](C)C(=O)O)cs1)C(C)C [Compound 5, (2S,4R)-4-(2-((1R,3R)-1-acetoxy-3-((2S,3S)-2-((2R,4R)-1,4-dimethylpiperidine-2-carboxamido)-N,3-dimethylpentanamido)-4-methylpentyl)thiazole-4-carboxamido)-2-methyl-5-phenylpentanoic acid] | 0.9 | 0.5 | 3.4
